Source: ChEMBL document CHEMBL1128323, “Antifungal agents. 9. 3-Aryl-4-[alpha-(1H-imidazol-1-yl)arylmethyl]pyrroles: a new class of potent anti-Candida agents” (1995)
Values after ≈ are worked out from the molar mass of the structure shown.

Experiments:
Type in all cases: functional
Candida albicans [1] = experiment: Percent resistance against Candida albicans (40 clinical isolates) at 256 micro g/mL (pH=5.8), activity is expressed as R%.
Candida albicans [2] = experiment: Resistance against Candida. albicans (40 clinical isolates) at 256 ug/mL (pH=7.2), activity is expressed as R%.
Candida albicans [3] = experiment: Inhibitory activity against Candida albicans (40 clinical isolates), determined at pH-5.8
Candida albicans [4] = experiment: Inhibitory activity against Candida albicans (40 clinical isolates), determined at pH-7.2
Candida [5] = experiment: Inhibitory activity against Candida. species. (40 clinical isolates), determined at pH-5.8
Candida [6] = experiment: Inhibitory activity against Candida. species. (40 clinical isolates), determined at pH-7.2
Candida [7] = experiment: Inhibitory activity against Candida. species (40 clinical isolates), determined at pH-5.8
Candida [8] = experiment: 50% inhibitory activity against the Candida. species (40 clinical isolates) was determined at pH-7.2
Candida [9] = experiment: 90% inhibitory activity against Candida. species (40 clinical isolates) determined at pH-7.2
Candida [10] = experiment: Resistance against all Candida. species (40 clinical isolates) at 256 micro g/mL (pH=5.8). Activity is expressed as R%.
Candida [11] = experiment: Percent resistance against all Candida. species (40 clinical isolates) at 256 micro g/mL (pH=7.2), activity is expressed as R%.
Candida albicans [12] = experiment: Inhibitory activity against the Candida albicans (40 clinical isolates), determined at pH-5.8
Candida albicans [13] = experiment: Inhibitory activity against the Candida albicans (40 clinical isolates), determined at pH-7.2
Candida albicans [14] = experiment: 50% inhibitory activity against Candida albicans (40 clinical isolates) determined at pH-5.8
Candida albicans [15] = experiment: 50% inhibitory activity against Candida albicans (40 clinical isolates) determined at pH-7.2
Candida [16] = experiment: 90% inhibitory activity against the Candida. species (40 clinical isolates) was determined at pH-7.2
[17] = Candida albicans, read-out: MIC50

Structure (SMILES)	R (Candida albicans [1]) [%]	R (Candida albicans [2]) [%]	MIC (Candida albicans [3]) [µg/mL]	MIC (Candida albicans [4]) [µg/mL]	MIC (Candida [5]) [µg/mL]	MIC (Candida [6]) [µg/mL]	MIC50 (Candida [7]) [µg/mL]	MIC90 (Candida [7]) [µg/mL]	MIC50 (Candida [8]) [µg/mL]	MIC90 (Candida [9]) [µg/mL]	R (Candida [10]) [%]	R (Candida [11]) [%]	MIC90 (Candida albicans [12]) [µg/mL]	MIC90 (Candida albicans [13]) [µg/mL]	MIC50 (Candida albicans [14]) [µg/mL]	MIC50 (Candida albicans [15]; [17]) [µg/mL]	MIC90 (Candida [16]) [µg/mL]	MIC50 (Candida albicans [15]) [µg/mL]
O=[N+]([O-])c1ccc(C(c2c[nH]cc2-c2ccc(Cl)cc2Cl)n2ccnc2)cc1 (stereo not drawn)	0	0	22.9 (≈ 55.4 µM)	38.5 (≈ 93.2 µM)	30.2 (≈ 73.1 µM)	> 207	32 (≈ 77.4 µM)	32 (≈ 77.4 µM)	256 (≈ 619 µM)	> 256	0	30	64 (≈ 155 µM)	64 (≈ 155 µM)	16 (≈ 38.7 µM)	32 (≈ 77.4 µM)	–	–
Cc1ccc(C(c2c[nH]cc2-c2ccccc2Cl)n2ccnc2)cc1 (stereo not drawn)	0	0	35.4 (≈ 102 µM)	13.2 (≈ 37.9 µM)	41.7 (≈ 120 µM)	30.1 (≈ 86.5 µM)	32 (≈ 92 µM)	64 (≈ 184 µM)	32 (≈ 92 µM)	32 (≈ 92 µM)	0	0	64 (≈ 184 µM)	64 (≈ 184 µM)	32 (≈ 92 µM)	4 (≈ 11.5 µM)	–	–
Clc1ccccc1-c1c[nH]cc1C(c1ccc(-n2cccc2)cc1)n1ccnc1 (stereo not drawn)	0	0	20.5 (≈ 51.4 µM)	25.3 (≈ 63.4 µM)	30.2 (≈ 75.7 µM)	24.1 (≈ 60.4 µM)	32 (≈ 80.2 µM)	32 (≈ 80.2 µM)	16 (≈ 40.1 µM)	64 (≈ 160 µM)	0	0	16 (≈ 40.1 µM)	64 (≈ 160 µM)	8 (≈ 20.1 µM)	8 (≈ 20.1 µM)	–	–
Fc1ccc(C(c2c[nH]cc2-c2ccccc2)n2ccnc2)cc1 (stereo not drawn)	0	0	71.2 (≈ 224 µM)	55.1 (≈ 174 µM)	99.5 (≈ 314 µM)	74.5 (≈ 235 µM)	64 (≈ 202 µM)	128 (≈ 403 µM)	64 (≈ 202 µM)	–	0	0	128 (≈ 403 µM)	64 (≈ 202 µM)	–	32 (≈ 101 µM)	128 (≈ 403 µM)	64 (≈ 202 µM)
Clc1ccc(-c2c[nH]cc2C(c2ccc(Cl)c(Cl)c2)n2ccnc2)cc1Cl (stereo not drawn)	0	0	9.2 (≈ 21 µM)	14 (≈ 31.9 µM)	> 328	> 309	256 (≈ 586 µM)	> 256	> 256	> 256	50	50	32 (≈ 73.2 µM)	32 (≈ 73.2 µM)	8 (≈ 18.3 µM)	8 (≈ 18.3 µM)	–	–
Clc1ccc(C(c2c[nH]cc2-c2ccc(Cl)c(Cl)c2)n2ccnc2)c(Cl)c1 (stereo not drawn)	0	0	5.9 (≈ 13.5 µM)	5.8 (≈ 13.3 µM)	27.7 (≈ 63.4 µM)	38.2 (≈ 87.4 µM)	32 (≈ 73.2 µM)	32 (≈ 73.2 µM)	32 (≈ 73.2 µM)	32 (≈ 73.2 µM)	0	0	16 (≈ 36.6 µM)	16 (≈ 36.6 µM)	2 (≈ 4.58 µM)	2 (≈ 4.58 µM)	–	–
Cc1ccc(C(c2c[nH]cc2-c2ccccc2)n2ccnc2)cc1 (stereo not drawn)	0	0	133 (≈ 425 µM)	48.4 (≈ 154 µM)	71 (≈ 227 µM)	51.6 (≈ 165 µM)	64 (≈ 204 µM)	256 (≈ 817 µM)	64 (≈ 204 µM)	–	0	0	256 (≈ 817 µM)	64 (≈ 204 µM)	–	32 (≈ 102 µM)	64 (≈ 204 µM)	64 (≈ 204 µM)
Clc1ccc(-c2c[nH]cc2C(c2ccc(Cl)cc2Cl)n2ccnc2)c(Cl)c1 (stereo not drawn)	0	0	7.4 (≈ 16.9 µM)	20.6 (≈ 47.1 µM)	23.4 (≈ 53.5 µM)	101 (≈ 231 µM)	32 (≈ 73.2 µM)	32 (≈ 73.2 µM)	256 (≈ 586 µM)	256 (≈ 586 µM)	0	0	16 (≈ 36.6 µM)	16 (≈ 36.6 µM)	2 (≈ 4.58 µM)	8 (≈ 18.3 µM)	–	–
Fc1ccc(C(c2c[nH]cc2-c2ccc(Cl)cc2)n2ccnc2)cc1 (stereo not drawn)	0	0	15.4 (≈ 43.8 µM)	19.2 (≈ 54.6 µM)	26.6 (≈ 75.6 µM)	31.8 (≈ 90.4 µM)	32 (≈ 91 µM)	32 (≈ 91 µM)	32 (≈ 91 µM)	64 (≈ 182 µM)	0	0	64 (≈ 182 µM)	32 (≈ 91 µM)	32 (≈ 91 µM)	16 (≈ 45.5 µM)	–	–
O=[N+]([O-])c1ccc(C(c2c[nH]cc2-c2ccccc2Cl)n2ccnc2)cc1 (stereo not drawn)	0	15	> 50.7	> 91.6	48.4 (≈ 128 µM)	> 200	64 (≈ 169 µM)	64 (≈ 169 µM)	64 (≈ 169 µM)	> 256	0	30	64 (≈ 169 µM)	256 (≈ 676 µM)	32 (≈ 84.5 µM)	32 (≈ 84.5 µM)	–	–
Fc1ccc(C(c2c[nH]cc2-c2ccc(Cl)cc2Cl)n2ccnc2)cc1 (stereo not drawn)	0	0	7.8 (≈ 20.2 µM)	10.4 (≈ 26.9 µM)	21.5 (≈ 55.7 µM)	20.9 (≈ 54.1 µM)	16 (≈ 41.4 µM)	32 (≈ 82.8 µM)	16 (≈ 41.4 µM)	32 (≈ 82.8 µM)	0	0	32 (≈ 82.8 µM)	32 (≈ 82.8 µM)	2 (≈ 5.18 µM)	8 (≈ 20.7 µM)	–	–
Clc1ccc(C(c2c[nH]cc2-c2ccccc2)n2ccnc2)cc1 (stereo not drawn)	0	0	47.3 (≈ 142 µM)	21.3 (≈ 63.8 µM)	51.4 (≈ 154 µM)	40 (≈ 120 µM)	64 (≈ 192 µM)	64 (≈ 192 µM)	32 (≈ 95.9 µM)	–	0	0	64 (≈ 192 µM)	128 (≈ 383 µM)	–	–	128 (≈ 383 µM)	–
Clc1ccc(-c2c[nH]cc2C(c2ccc(Cl)c(Cl)c2)n2ccnc2)cc1 (stereo not drawn)	0	0	14.4 (≈ 35.8 µM)	19.3 (≈ 48 µM)	32.2 (≈ 80 µM)	91.3 (≈ 227 µM)	32 (≈ 79.5 µM)	64 (≈ 159 µM)	64 (≈ 159 µM)	64 (≈ 159 µM)	0	10	64 (≈ 159 µM)	64 (≈ 159 µM)	4 (≈ 9.93 µM)	2 (≈ 4.97 µM)	–	–
Clc1ccc(C(c2c[nH]cc2-c2ccc(Cl)c(Cl)c2)n2ccnc2)cc1 (stereo not drawn)	0	0	8.9 (≈ 22.1 µM)	9.6 (≈ 23.8 µM)	30.2 (≈ 75 µM)	39.2 (≈ 97.3 µM)	32 (≈ 79.5 µM)	64 (≈ 159 µM)	32 (≈ 79.5 µM)	64 (≈ 159 µM)	0	0	16 (≈ 39.7 µM)	16 (≈ 39.7 µM)	4 (≈ 9.93 µM)	4 (≈ 9.93 µM)	–	–
Clc1ccc(COC(Cn2ccnc2)c2ccc(Cl)cc2Cl)c(Cl)c1 (stereo not drawn) [MICONAZOLE]	0	0	5.9 (≈ 14.2 µM)	6.1 (≈ 14.7 µM)	13 (≈ 31.2 µM)	13 (≈ 31.2 µM)	2 (≈ 4.81 µM)	32 (≈ 76.9 µM)	16 (≈ 38.4 µM)	32 (≈ 76.9 µM)	0	0	32 (≈ 76.9 µM)	32 (≈ 76.9 µM)	0.5 (≈ 1.2 µM)	2 (≈ 4.81 µM)	–	–
